What was measured:
Test in all cases: -log10 GI50 (growth inhibition 50%) (-log10(M)); higher = more potent growth inhibition
[1] = system: MX1
Outline: (§1)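 Breast cancer cell lines were treated with each compound for 72 hours at nine doses in 1:5 serial dilution, in triplicate, and luminescence was read against a time-zero plate. A Gompertz curve was fitted to the dose-response data by nonlinear least squares to obtain GI50, the molar concentration giving the set level of growth inhibition, which is reported as its negative logarithm. The logarithm is base 10, and values equal to the top dose carry a < qualifier.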

[2] = system: HCC1395
Outline: as §1

[3] = system: HCC1806
Outline: as §1

[4] = system: ZR751
Outline: as §1

[5] = system: MCF7
Outline: as §1

[6] = system: HCC2185
Outline: as §1

[7] = system: MCF10A
Outline: as §1

[8] = system: MDAMB134VI
Outline: as §1

[9] = system: HCC1143
Outline: as §1

[10] = system: HCC3153
Outline: as §1

[11] = system: CAMA1
Outline: as §1

[12] = system: HCC1419
Outline: as §1

[13] = system: SUM225CWN
Outline: as §1

[14] = system: BT549
Outline: as §1

[15] = system: 184B5
Outline: as §1

[16] = system: AU565
Outline: as §1

[17] = system: 600MPE
Outline: as §1

[18] = system: HCC1569
Outline: as §1

[19] = system: MDAMB157
Outline: as §1

[20] = system: SUM1315MO2
Outline: as §1

## CC(/C=C/C(=O)NO)=C\[C@@H](C)C(=O)c1ccc(N(C)C)cc1 [Trichostatin A]
[1]
  -log10 GI50: 4.79
[2]
  -log10 GI50: 4.5
[3]
  -log10 GI50: 4.97
[4]
  -log10 GI50: 4.74
[5]
  -log10 GI50: 5.18
[6]
  -log10 GI50: 4.79
[7]
  -log10 GI50: 4.82
[8]
  -log10 GI50: 5.2
[9]
  -log10 GI50: 4.77
[10]
  -log10 GI50: 4.62
[11]
  -log10 GI50: 5.57
[12]
  -log10 GI50: 4.9
[13]
  -log10 GI50: 4.86
[14]
  -log10 GI50: 5.13
[15]
  -log10 GI50: 4.34
[16]
  -log10 GI50: 5.44
[17]
  -log10 GI50: 5.19
[18]
  -log10 GI50: 5.06
[19]
  -log10 GI50: 4.68
[20]
  -log10 GI50: 4.31

## CNC(=O)c1c(F)cccc1Nc1nc(Nc2cc3c(cc2OC)CCN3C(=O)CN(C)C)nc2[nH]ccc12
[1]
  -log10 GI50: 5.29
[2]
  -log10 GI50: 5.33
[3]
  -log10 GI50: 4.09
[4]
  -log10 GI50: 5.17
[5]
  -log10 GI50: 6
[6]
  -log10 GI50: 5.39
[7]
  -log10 GI50: 5.45
[8]
  -log10 GI50: 4.96
[9]
  -log10 GI50: 5.56
[10]
  -log10 GI50: 5.39
[11]
  -log10 GI50: 5.08
[12]
  -log10 GI50: 5.19
[13]
  -log10 GI50: 4.9
[14]
  -log10 GI50: 5.21
[15]
  -log10 GI50: 6.32
[16]
  -log10 GI50: 5.63
[17]
  -log10 GI50: 6.49
[18]
  -log10 GI50: 5.12
[19]
  -log10 GI50: 5.06
[20]
  -log10 GI50: 5.1

## Cc1ccc(NC(=O)c2ccc(CN3CCN(C)CC3)cc2)cc1Nc1nccc(-c2cccnc2)n1 [Imatinib]
[1]
  -log10 GI50: 4.65
[2]
  -log10 GI50: 4.77
[3]
  -log10 GI50: 5.15
[4]
  -log10 GI50: 4.56
[5]
  -log10 GI50: 4.82
[6]
  -log10 GI50: 4.82
[7]
  -log10 GI50: 4.36
[8]
  -log10 GI50: 4.47
[9]
  -log10 GI50: 4.53
[10]
  -log10 GI50: 4.52
[11]
  -log10 GI50: 4.71
[12]
  -log10 GI50: 4.74
[13]
  -log10 GI50: 4.9
[14]
  -log10 GI50: 4.45
[15]
  -log10 GI50: 4.63
[16]
  -log10 GI50: 4.72
[17]
  -log10 GI50: 4.62
[18]
  -log10 GI50: 4.75
[19]
  -log10 GI50: 4.76
[20]
  -log10 GI50: 4.63

## CCC[C@H](N[C@H]1CCc2cc(F)cc(F)c2C1)C(=O)Nc1cn(C(C)(C)CNCC(C)(C)C)cn1
[1]
  -log10 GI50: 5.76
[2]
  -log10 GI50: < 4.18
[3]
  -log10 GI50: < 4.18
[4]
  -log10 GI50: 4.72
[5]
  -log10 GI50: 4.49
[6]
  -log10 GI50: 4.99
[7]
  -log10 GI50: < 4.18
[8]
  -log10 GI50: 4.33
[9]
  -log10 GI50: < 4.18
[10]
  -log10 GI50: 4.37
[11]
  -log10 GI50: < 4.18
[12]
  -log10 GI50: < 4.18
[13]
  -log10 GI50: 4.84
[14]
  -log10 GI50: < 4.18
[15]
  -log10 GI50: 4.86
[16]
  -log10 GI50: 4.98
[17]
  -log10 GI50: < 4.18
[18]
  -log10 GI50: 4.27
[19]
  -log10 GI50: 4.88
[20]
  -log10 GI50: 4.65

## Oc1cc(-c2nc(-c3ccccc3)[nH]c2-c2ccncc2)ccc1Cl
[1]
  -log10 GI50: 4.98
[2]
  -log10 GI50: 4.82
[3]
  -log10 GI50: 4.9
[4]
  -log10 GI50: 4.59
[5]
  -log10 GI50: < 4.48
[6]
  -log10 GI50: < 4.48
[7]
  -log10 GI50: 4.92
[8]
  -log10 GI50: 4.85
[9]
  -log10 GI50: 4.39
[10]
  -log10 GI50: < 4.48
[11]
  -log10 GI50: 4.4
[12]
  -log10 GI50: 4.79
[13]
  -log10 GI50: 5.15
[14]
  -log10 GI50: < 4.48
[15]
  -log10 GI50: 5.45
[16]
  -log10 GI50: < 4.48
[17]
  -log10 GI50: 5.07
[18]
  -log10 GI50: 4.77
[19]
  -log10 GI50: 4.88
[20]
  -log10 GI50: 4.69

## CCNCCCCNCCCCNCCCCNCCCCNC/C=C/CNCCCCNCCCCNCCCCNCCCCNCC
[1]
  -log10 GI50: 6.57
[2]
  -log10 GI50: 6.3
[3]
  -log10 GI50: 6.71
[4]
  -log10 GI50: 6.82
[5]
  -log10 GI50: 6.33
[6]
  -log10 GI50: 6.6
[7]
  -log10 GI50: 5.9
[8]
  -log10 GI50: 6.38
[9]
  -log10 GI50: 6.88
[10]
  -log10 GI50: 6.72
[11]
  -log10 GI50: 6.43
[12]
  -log10 GI50: 6.51
[13]
  -log10 GI50: 5.49
[14]
  -log10 GI50: 6.53
[15]
  -log10 GI50: 5.62
[16]
  -log10 GI50: 6.31
[17]
  -log10 GI50: 6.49
[18]
  -log10 GI50: 4.74
[19]
  -log10 GI50: 6.97
[20]
  -log10 GI50: 5.69

## O=C(CCCCCCC(=O)Nc1ccccc1)NO [Vorinostat]
[1]
  -log10 GI50: 4.06
[2]
  -log10 GI50: 3.49
[3]
  -log10 GI50: 3.89
[4]
  -log10 GI50: 3.77
[5]
  -log10 GI50: 4.19
[6]
  -log10 GI50: 4.28
[7]
  -log10 GI50: 3.68
[8]
  -log10 GI50: 4.4
[9]
  -log10 GI50: 3.9
[10]
  -log10 GI50: 3.77
[11]
  -log10 GI50: 4.13
[12]
  -log10 GI50: 4.27
[13]
  -log10 GI50: 3.84
[14]
  -log10 GI50: 3.83
[15]
  -log10 GI50: 3.84
[16]
  -log10 GI50: 4.08
[17]
  -log10 GI50: 4.18
[18]
  -log10 GI50: 3.98
[19]
  -log10 GI50: 4.01
[20]
  -log10 GI50: 3.77

## O=c1[nH]c(=O)n([C@H]2C[C@H](O)[C@@H](CO)O2)cc1F [Floxuridine]
[1]
  -log10 GI50: 2.84
[2]
  -log10 GI50: 3.51
[3]
  -log10 GI50: 4.02
[4]
  -log10 GI50: 5.55
[5]
  -log10 GI50: 3.77
[6]
  -log10 GI50: 3.2
[7]
  -log10 GI50: 4.86
[8]
  -log10 GI50: 3.2
[9]
  -log10 GI50: 4.08
[10]
  -log10 GI50: 3.11
[11]
  -log10 GI50: 4.36
[12]
  -log10 GI50: 2.73
[13]
  -log10 GI50: 3.53
[14]
  -log10 GI50: 3.57
[15]
  -log10 GI50: 3.65
[16]
  -log10 GI50: 4.97
[17]
  -log10 GI50: 5.81
[18]
  -log10 GI50: 3.38
[19]
  -log10 GI50: 3.87
[20]
  -log10 GI50: 3.18

## CC(=O)NCC(=O)N1[C@@H]2CC[C@H]1c1ccc(Nc3ncc(C(F)(F)F)c(NC4CCC4)n3)cc12
[1]
  -log10 GI50: 7
[2]
  -log10 GI50: 5.96
[3]
  -log10 GI50: 5.55
[4]
  -log10 GI50: 4.99
[5]
  -log10 GI50: 5.71
[6]
  -log10 GI50: 4.98
[7]
  -log10 GI50: 6.36
[8]
  -log10 GI50: 5.3
[9]
  -log10 GI50: 5.82
[10]
  -log10 GI50: 5.38
[11]
  -log10 GI50: 5.44
[12]
  -log10 GI50: 5.19
[13]
  -log10 GI50: 5.05
[14]
  -log10 GI50: 5.47
[15]
  -log10 GI50: 5.48
[16]
  -log10 GI50: 5.57
[17]
  -log10 GI50: 6.03
[18]
  -log10 GI50: 6.07
[19]
  -log10 GI50: 6.1
[20]
  -log10 GI50: 6.12

Source: the supplement of paper PMC3937590
